Test results as given in US20260262643A1, “HERBICIDAL BENZOXAZINES” (FMC CORPORATION, priority 2022, published 2026).

Tests used:
horseweed = experiment: Test C postemergence; format: in vivo, Erigeron canadensis; conditions: 10 days, 0 to 100 scale (0 no effect, 100 complete control)
Outline: (§1)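 Greenhouse herbicide screen, 10-day duration. Test chemicals in solvent/surfactant blend were sprayed onto soil at sowing (pre) or onto 2–10 cm seedlings at one to two leaves (post); injury scored visually against controls, 0 no effect to 100 complete control.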

blackgrass [1] = experiment: Test C postemergence; format: in vivo, Alopecurus myosuroides; conditions: 10 days, 0 to 100 scale (0 no effect, 100 complete control)
Outline: as §1

barnyardgrass [2] = experiment: Test C postemergence; format: in vivo, Echinochloa crusgalli; conditions: 10 days, 0 to 100 scale (0 no effect, 100 complete control)
Outline: as §1

ducksalad = experiment: Test D flooded paddy test; format: in vivo, Heteranthera limosa; conditions: 250 g ai/ha, applied to paddy water, visual rating after 13 to 14 days, scale 0 to 100 (0 no effect, 100 complete control)
Outline: (§2)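 2-leaf plants; flood 3 cm above soil; compound dosed into paddy water; greenhouse 13–14 d; visual rating vs controls, 0–100 (100 = complete control); dash = not tested.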

sedge, umbrella = experiment: Test D flooded paddy test; format: in vivo, Cyperus difformis; conditions: 250 g ai/ha, applied to paddy water, visual rating after 13 to 14 days, scale 0 to 100 (0 no effect, 100 complete control)
Outline: as §2

ryegrass, Italian [3] = experiment: Test C postemergence; format: in vivo, Lolium multiflorum; conditions: 10 days, 0 to 100 scale (0 no effect, 100 complete control)
Outline: as §1

corn [4] = experiment: Test C preemergence; format: in vivo, Zea mays
Outline: as §1

ragweed [5] = experiment: Test C postemergence; format: in vivo, Ambrosia artemisiifolia; conditions: 10 days, 0 to 100 scale (0 no effect, 100 complete control)
Outline: as §1

barnyardgrass [6] = experiment: Test D flooded paddy test; format: in vivo, Echinochloa crus-galli; conditions: 250 g ai/ha, applied to paddy water, visual rating after 13 to 14 days, scale 0 to 100 (0 no effect, 100 complete control)
Outline: as §2

oat, wild [7] = experiment: Test C preemergence; format: in vivo, Avena fatua
Outline: as §1

pigweed, palmer [8] = experiment: Test C preemergence; format: in vivo, Amaranthus palmeri
Outline: as §1

wheat [9] = experiment: Test C preemergence; format: in vivo, Triticum aestivum
Outline: as §1

wheat [10] = experiment: Test C postemergence; format: in vivo, Triticum aestivum; conditions: 10 days, 0 to 100 scale (0 no effect, 100 complete control)
Outline: as §1

kochia [11] = experiment: Test C preemergence; format: in vivo, Bassia scoparia
Outline: as §1

ragweed [12] = experiment: Test C preemergence; format: in vivo, Ambrosia artemisiifolia
Outline: as §1

green foxtail [13] = experiment: Test C postemergence; format: in vivo, Setaria viridis; conditions: 10 days, 0 to 100 scale (0 no effect, 100 complete control)
Outline: as §1

corn [14] = experiment: Test C postemergence; format: in vivo, Zea mays; conditions: 10 days, 0 to 100 scale (0 no effect, 100 complete control)
Outline: as §1

blackgrass [15] = experiment: Test C preemergence; format: in vivo, Alopecurus myosuroides
Outline: as §1

ryegrass, Italian [16] = experiment: Test C preemergence; format: in vivo, Lolium multiflorum
Outline: as §1

oat, wild [17] = experiment: Test C postemergence; format: in vivo, Avena fatua; conditions: 10 days, 0 to 100 scale (0 no effect, 100 complete control)
Outline: as §1

barnyardgrass [18] = experiment: Test C preemergence; format: in vivo, Echinochloa crusgalli
Outline: as §1

galium = experiment: Test C postemergence; format: in vivo, Galium aparine; conditions: 10 days, 0 to 100 scale (0 no effect, 100 complete control)
Outline: as §1

pigweed, palmer [19] = experiment: Test C postemergence; format: in vivo, Amaranthus palmeri; conditions: 10 days, 0 to 100 scale (0 no effect, 100 complete control)
Outline: as §1

rice = experiment: Test D flooded paddy test; format: in vivo, Oryza sativa; conditions: 250 g ai/ha, applied to paddy water, visual rating after 13 to 14 days, scale 0 to 100 (0 no effect, 100 complete control)
Outline: as §2

soybean [20] = experiment: Test C preemergence; format: in vivo, Glycine max
Outline: as §1

kochia [21] = experiment: Test C postemergence; format: in vivo, Bassia scoparia; conditions: 10 days, 0 to 100 scale (0 no effect, 100 complete control)
Outline: as §1

soybean [22] = experiment: Test C postemergence; format: in vivo, Glycine max; conditions: 10 days, 0 to 100 scale (0 no effect, 100 complete control)
Outline: as §1

green foxtail [23] = experiment: Test C preemergence; format: in vivo, Setaria viridis
Outline: as §1

[24] = 500 g ai/ha, preemergence, 0 to 100 scale (0 no effect, 100 complete control)
[25] = Preemergence, 125 g ai/ha, 0 to 100 scale, 0 no effect, 100 complete control

COC(C)(C)c1ncn(-c2ccc(C)c(C(=O)N3C[C@H](C)Oc4c(Cl)cccc43)c2)n1 [Compound 343]
70: Plant response rating, Barnyardgrass (barnyardgrass [2]; 500 g ai/ha, postemergence) | Plant response rating, Ryegrass, Italian (ryegrass, Italian [3]; Postemergence, 125 g ai/ha) | Ragweed plant response rating (ragweed [12]; [24])
20: Plant response rating, Barnyardgrass (barnyardgrass [2]; Postemergence, 125 g ai/ha) | Plant response rating, Wheat (wheat [10]; Postemergence, 125 g ai/ha)
35: Plant response rating, Barnyardgrass (Flood) (barnyardgrass [6])
65: Plant response rating, Sedge, Umbrella (Flood) (sedge, umbrella)
60: Corn plant response rating (corn [4]; [24]) | Plant response rating, Ragweed (ragweed [5]; Postemergence, 125 g ai/ha) | Plant response rating, Wheat (wheat [10]; 500 g ai/ha, postemergence) | Plant response rating, Oat, Wild (oat, wild [17]; Postemergence, 125 g ai/ha)
80: Plant response rating, Horseweed (horseweed; 500 g ai/ha, postemergence) | Plant response rating, Ragweed (ragweed [5]; 500 g ai/ha, postemergence) | Plant response rating, Kochia (kochia [21]; Postemergence, 125 g ai/ha)
30: Plant response rating, Horseweed (horseweed; Postemergence, 125 g ai/ha) | Plant response rating, Wheat (wheat [9]; [25]) | Plant response rating, Ragweed (ragweed [12]; [25]) | Plant response rating, Soybean (soybean [20]; [25])
100: Pigweed, Palmer plant response rating (pigweed, palmer [8]; [24]) | Plant response rating, Pigweed, Palmer (pigweed, palmer [8]; [25]) | Kochia plant response rating (kochia [11]; [24]) | Plant response rating, Corn (corn [14]; 500 g ai/ha, postemergence) | Ryegrass, Italian plant response rating (ryegrass, Italian [16]; [24]) | Plant response rating, Ryegrass, Italian (ryegrass, Italian [16]; [25]) | Barnyardgrass plant response rating (barnyardgrass [18]; [24]) | Plant response rating, Barnyardgrass (barnyardgrass [18]; [25]) | Plant response rating, Galium (galium; 500 g ai/ha, postemergence) | Plant response rating, Galium (galium; Postemergence, 125 g ai/ha) | Plant response rating, Pigweed, Palmer (pigweed, palmer [19]; 500 g ai/ha, postemergence) | Soybean plant response rating (soybean [20]; [24]) | Plant response rating, Soybean (soybean [22]; 500 g ai/ha, postemergence) | Plant response rating, Soybean (soybean [22]; Postemergence, 125 g ai/ha) | Foxtail, Green plant response rating (green foxtail [23]; [24]) | Plant response rating, Foxtail, Green (green foxtail [23]; [25])
90: Plant response rating, Blackgrass (blackgrass [1]; 500 g ai/ha, postemergence) | Plant response rating, Ryegrass, Italian (ryegrass, Italian [3]; 500 g ai/ha, postemergence) | Oat, Wild plant response rating (oat, wild [7]; [24]) | Plant response rating, Oat, Wild (oat, wild [7]; [25]) | Wheat plant response rating (wheat [9]; [24]) | Plant response rating, Kochia (kochia [11]; [25]) | Plant response rating, Foxtail, Green (green foxtail [13]; 500 g ai/ha, postemergence) | Plant response rating, Corn (corn [14]; Postemergence, 125 g ai/ha) | Blackgrass plant response rating (blackgrass [15]; [24]) | Plant response rating, Oat, Wild (oat, wild [17]; 500 g ai/ha, postemergence) | Plant response rating, Kochia (kochia [21]; 500 g ai/ha, postemergence)
50: Plant response rating, Foxtail, Green (green foxtail [13]; Postemergence, 125 g ai/ha) | Plant response rating, Blackgrass (blackgrass [15]; [25]) | Plant response rating, Pigweed, Palmer (pigweed, palmer [19]; Postemergence, 125 g ai/ha)
40: Plant response rating, Blackgrass (blackgrass [1]; Postemergence, 125 g ai/ha) | Plant response rating, Corn (corn [4]; [25])
45: Plant response rating, Ducksalad (Flood) (ducksalad)
15: Plant response rating, Rice (Flood) (rice)
